PubChem BioAssay (NCI)
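How tested: cells in 96-well plates exposed to compound for 48 hours at five concentrations. Abbreviation: GI50, concentration required for 50% inhibition of growth. TGI is the concentration that stops growth completely.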

How the values were obtained:
Assay in all cases: NCI tumour cell line growth inhibition, 48 h
786-0 renal = system: 786-0 renal
A498 renal = system: A498 renal
ACHN renal = system: ACHN renal
BT-549 breast = system: BT-549 breast
CAKI-1 renal = system: CAKI-1 renal
DU-145 prostate = system: DU-145 prostate
EKVX NSCLC = system: EKVX NSCLC
HOP-62 NSCLC = system: HOP-62 NSCLC
HOP-92 NSCLC = system: HOP-92 NSCLC
HS 578T breast = system: HS 578T breast
KM12 colon = system: KM12 colon
MALME-3M melanoma = system: MALME-3M melanoma
MDA-MB-435 = system: MDA-MB-435
NCI-H23 lung = system: NCI-H23 lung
OVCAR-3 ovarian = system: OVCAR-3 ovarian
OVCAR-4 ovarian = system: OVCAR-4 ovarian
OVCAR-5 ovarian = system: OVCAR-5 ovarian
PC-3 prostate = system: PC-3 prostate
RXF 393 renal = system: RXF 393 renal
SF-268 CNS = system: SF-268 CNS
SF-539 CNS = system: SF-539 CNS
SK-MEL-28 melanoma = system: SK-MEL-28 melanoma
SK-MEL-5 melanoma = system: SK-MEL-5 melanoma
SK-OV-3 ovarian = system: SK-OV-3 ovarian
SNB-75 CNS = system: SNB-75 CNS
TK-10 renal = system: TK-10 renal
UACC-62 melanoma = system: UACC-62 melanoma
UO-31 renal = system: UO-31 renal

CC[C@]12C=CCN3CC[C@@]4(c5cc(NC(=O)COc6cc(O)c7c(=O)cc(-c8ccccc8)oc7c6)c(OC)cc5N(C)[C@H]4[C@@](O)(C(=O)OC)[C@@H]1OC(C)=O)[C@@H]32 showed a GI50 (786-0 renal) of 1.79 µM, a TGI (786-0 renal) of 3.53 µM and a GI50 (A498 renal) of 1.48 µM. It also gave a TGI (A498 renal) of 3.1 µM, a GI50 (ACHN renal) of 1.67 µM and a TGI (ACHN renal) of 3.2 µM. The GI50 (BT-549 breast) was 1.64 µM, the TGI (BT-549 breast) was 3.18 µM and the GI50 (CAKI-1 renal) was 1.81 µM. For the same compound, the TGI (CAKI-1 renal) was 4.29 µM, the GI50 (DU-145 prostate) was 2.4 µM and the TGI (DU-145 prostate) was 5.57 µM. For the same compound, the GI50 (EKVX NSCLC) was 2 µM, the TGI (EKVX NSCLC) was 4.6 µM and the GI50 (HOP-62 NSCLC) was 1.88 µM. The TGI (HOP-62 NSCLC) was 3.94 µM, the GI50 (HOP-92 NSCLC) was 1.36 µM and the TGI (HOP-92 NSCLC) was 2.98 µM. The GI50 (HS 578T breast) was 1.99 µM, the TGI (HS 578T breast) was 4.79 µM and the GI50 (KM12 colon) was 2.07 µM. It also gave a TGI (KM12 colon) of 5.14 µM, a GI50 (MALME-3M melanoma) of 1.58 µM and a TGI (MALME-3M melanoma) of 2.97 µM. For the same compound, the GI50 (MDA-MB-435) was 1.56 µM, the TGI (MDA-MB-435) was 3.02 µM and the GI50 (NCI-H23 lung) was 1.85 µM. It also gave a TGI (NCI-H23 lung) of 3.45 µM, a GI50 (OVCAR-3 ovarian) of 2.81 µM and a TGI (OVCAR-3 ovarian) of 7.17 µM. For the same compound, the GI50 (OVCAR-4 ovarian) was 1.88 µM, the TGI (OVCAR-4 ovarian) was 3.42 µM and the GI50 (OVCAR-5 ovarian) was 1.72 µM. It also gave a TGI (OVCAR-5 ovarian) of 3.2 µM, a GI50 (PC-3 prostate) of 1.31 µM and a TGI (PC-3 prostate) of 2.78 µM. For the same compound, the GI50 (RXF 393 renal) was 1.74 µM, the TGI (RXF 393 renal) was 3.2 µM and the GI50 (SF-268 CNS) was 1.98 µM. The TGI (SF-268 CNS) was 4.51 µM, the GI50 (SF-539 CNS) was 1.67 µM and the TGI (SF-539 CNS) was 3.2 µM. It also gave a GI50 (SK-MEL-28 melanoma) of 1.75 µM, a TGI (SK-MEL-28 melanoma) of 3.2 µM and a GI50 (SK-MEL-5 melanoma) of 1.81 µM. The TGI (SK-MEL-5 melanoma) was 3.34 µM, the GI50 (SK-OV-3 ovarian) was 2.15 µM and the TGI (SK-OV-3 ovarian) was 4.79 µM. The GI50 (SNB-75 CNS) was 1.34 µM, the TGI (SNB-75 CNS) was 3.97 µM and the GI50 (TK-10 renal) was 2.15 µM. The TGI (TK-10 renal) was 4.84 µM, the GI50 (UACC-62 melanoma) was 1.85 µM and the TGI (UACC-62 melanoma) was 3.69 µM. It also gave a GI50 (UO-31 renal) of 1.68 µM and a TGI (UO-31 renal) of 3.08 µM.
